Values joined by “and” are separate entries in the source; they are usually repeats but may differ in a detail not shown here. Equal values may be shown once. Where a name gives a salt, the structure may show the parent alone.
Experiments:
cyclooxygenase = experiment: resident murine peritoneal macrophage test, PGE2 (cyclooxygenase) by RIA; assay type: cell-based, mouse (female Swiss Webster); conditions: for IC50: 95% confidence limits given, mouse macrophages
Protocol: (§1) The ability of the compounds of the invention to act as inhibitors of the enzymes 5-lipoxygenase and cyclooxygenase was evaluated in the resident murine peritoneal macrophage standard pharmacological test procedure. This test procedure was carried out as follows.
(§2) Resident peritoneal macrophages were collected from female Swiss Webster mice (49 days old, 20-25 gms, Buckshire) by lavaging with 7-8 ml Hanks Balanced Salt Solution (HBSS) without Ca^++ and Mg^++ (GIBCO). The lavage fluid from several mice was pooled and centrifuged at 4° C. for 10 minutes at 400 xg. The cell pellet was resuspended in Medium 199 (GIBCO) with HEPES buffer containing 100 μg/ml gentamicin. Two ml of the cell suspension (4×10^6 cells) were then plated on 35 mm culture dishes (Nunc).
A macrophage monolayer was established after a 1-1.5 hour incubation of the cells at 37° C. in an atmosphere of […] and 5% CO2. The monolayers were washed 2x with 2 ml HBDSS, containing Ca^++ and Mg^++ after which 2 ml Medium 199 supplemented with 10% freshly thawed heat-inactivated fetal bovine serum and 100 μg/ml gentamicin was added for an overnight incubation.
(§3) Residual serum and cellular debris were removed from the monolayers by washing 3x with 2 ml HBSS containing Ca^++ and Mg^++. Macrophages were preincubated for 5 minutes with 1 ml serum-free M199 containing 10 μl dimethyl sulfoxide (DMSO) vehicle or test compound prior to cell activation with zymosan ([…]) or arachidonic acid (AA) (2 μM). After 2 hours, the supernatants are removed and either assayed for LTC4 and PGE2 by radioimmunoassay (RIA) directly or stored at -20° C. In all cases, results are expressed as ng metabolite/4×10^6 cells.
(§4) Calculations: The raw data were converted to ng metabolite/4-10^6 cells using a standard curve. Results were then expressed as percent inhibition of zymosan induced, leukotriene or prostaglandin synthesis (control) using the following equation: […]

5-lipoxygenase = biological target: T1, 5-lipoxygenase (Mus musculus, UniProt P48999); experiment: resident murine peritoneal macrophage test, LTC4 (5-lipoxygenase) by RIA; assay type: cell-based, mouse (female Swiss Webster)
T1 construct: Resident peritoneal macrophages were collected from female Swiss Webster mice; endogenous in cells; host or cells: resident peritoneal macrophages of female Swiss Webster mice
T1 sequence (P48999 1-674): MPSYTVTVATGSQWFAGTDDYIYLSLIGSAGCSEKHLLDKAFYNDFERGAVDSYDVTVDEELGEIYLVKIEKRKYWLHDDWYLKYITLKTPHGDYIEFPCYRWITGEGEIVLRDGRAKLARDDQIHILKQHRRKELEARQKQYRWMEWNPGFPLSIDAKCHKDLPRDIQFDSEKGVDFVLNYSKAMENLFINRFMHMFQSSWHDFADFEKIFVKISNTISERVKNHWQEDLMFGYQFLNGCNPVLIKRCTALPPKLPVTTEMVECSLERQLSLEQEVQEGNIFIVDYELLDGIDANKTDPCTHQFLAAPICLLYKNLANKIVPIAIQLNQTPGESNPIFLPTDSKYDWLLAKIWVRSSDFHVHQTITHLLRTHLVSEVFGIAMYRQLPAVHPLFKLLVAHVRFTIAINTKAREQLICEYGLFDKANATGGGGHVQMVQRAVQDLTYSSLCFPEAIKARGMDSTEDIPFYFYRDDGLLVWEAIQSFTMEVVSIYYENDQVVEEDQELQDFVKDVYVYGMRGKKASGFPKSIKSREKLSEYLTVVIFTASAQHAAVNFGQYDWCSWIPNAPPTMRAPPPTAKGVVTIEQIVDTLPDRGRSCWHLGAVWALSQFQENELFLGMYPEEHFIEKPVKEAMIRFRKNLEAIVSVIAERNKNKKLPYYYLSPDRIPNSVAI
Protocol: as §1
as §2, with “The cell pellet was resuspended in Medium 199 (GIBCO) with HEPES buffer containing 100 μg/ml gentamicin.” left out
as §3, §4

[1] = system: tetradecanoylphorbol acetate (TPA) induced ear edema; experiment: TPA induced ear edema in Webster mice (dermal inflammation); assay type: in vivo; conditions: for inhibition of TPA induced ear edema: 100 mg/kg, oral, 30 min after TPA, ears measured 4 hrs after TPA
Protocol: Representative compounds of this invention were evaluated in an in vivo standard pharmacological test procedure that measured the effect of the representative compounds on dermal inflammation, as measured by the prevention of tetradecanoylphorbol acetate (TPA) induced ear edema in Webster mice. This test procedure was carried out as follows.
Mice were placed into plastic boxes in groups of six. Eight groups of mice received TPA topically on the right ear. TPA was dissolved in acetone at a concentration of 100 ug/ml. TPA was applied to the right ear by the means of an automatic pipette. Volumes of 10 ul were applied to the inner and outer surfaces of the ear. Each mouse received 2 ug/ear TPA. The left ear (control) received acetone delivered in the same manner. The compounds to be evaluated were given orally 30 min alter treatment with TPA.
Measurements were taken with Oditest calipers, 0-10 mm with 0.01 graduations. The right and left ears were measured 4 hrs after TPA-induced inflammation.
The difference between right and left ear thickness was calculated and the significance was determined by a one way analysis of variance with Dunnet's comparisons to control (P=0.05). Drug effects are expressed as a percent change from control values according to the following formula. [formula]

Structure (SMILES) | PGE2 % Inhibition (cyclooxygenase; dose 0.5 μM) | LTC4 % Inhibition (5-lipoxygenase; dose 0.1 μM) | LTC4 % Inhibition (5-lipoxygenase; dose 0.5 μM) | inhibition of TPA induced ear edema [1] | also measured
O=C(CCC1CCCCCCCCCCC1=O)C1=C(O)COC1=O (centres unmarked) [Example 1, 4-Hydroxy-3-[3-(2-oxocyclododecyl)-propionyl]-2-(5H)-furanone] | 5.8% | 2.1% | 38.7% |  | PGE2 % Inhibition (cyclooxygenase; dose 0.1 μM): -17.9%
O=C(CCC1CCCCCCCCCCC1=NOCc1ccccc1)C1=C(O)COC1=O (centres unmarked) [Example 3, 3-{3-[2-(Benzyloxyimino)cyclododecyl]-propionyl}-4-hydroxy-2-(5H)-furanone 2-amino-(2-hydroxymethyl)-1,3-propanediol salt] | 86% and 59% | 38% and 53% | 64% and 68% | 34% | PGE2 % Inhibition (cyclooxygenase; dose 0.03 μM): 8%; LTC4 % Inhibition (5-lipoxygenase; dose 0.03 μM): 40%
O=C(CCC1CCCCCCCCCCC1=NOCc1ccccc1)C1=C(O)CSC1=O (centres unmarked) [Example 4, 3-{3-[2-(Benzyloxyimino)cyclododecyl]-propionyl}-4-hydroxy-2-(5H)-thiophenone 2-amino-(2-hydroxymethyl)-1,3-propanediol salt] | 82% | 37% and 66% | 77% | 19% | PGE2 % Inhibition (cyclooxygenase; dose 0.03 μM): 18%; PGE2 % Inhibition (cyclooxygenase; dose 0.35 μM): 52%; LTC4 % Inhibition (5-lipoxygenase; dose 0.03 μM): 45%; LTC4 % Inhibition (5-lipoxygenase; dose 0.35 μM): 97%
CCCCCC#CCC#CCC#CCC#CCCCC(=O)O [ETYA, reference compound] |  |  |  |  | IC50 (cyclooxygenase): 1.26 µM
O=C(CCC1CCCCCCCCCCC1=O)C1=C(O)CSC1=O (centres unmarked) [Example 2, 4-Hydroxy-3-[3-(2-Oxocyclododecyl)propionyl]-2-(5H)-thiophenone] | 3.3% | -4.9% | 39.5% | 40% | PGE2 % Inhibition (cyclooxygenase; dose 0.1 μM): -35.0%
CC(Cc1ccc(O)c(O)c1)C(C)Cc1ccc(O)c(O)c1 (centres unmarked) [NDGA, reference compound] |  |  |  |  | IC50 (cyclooxygenase): 2.15 µM
COc1ccc2c(c1)c(CC(=O)O)c(C)n2C(=O)c1ccc(Cl)cc1 [Indomethacin, reference compound] |  |  |  |  | activity in TPA induced ear edema ([1]; at 10 mg/g (so in the source)): inactive
